Results from ChEMBL document CHEMBL3612042 (J Med Chem, 2015).
≈ marks a conversion by molar mass, not a printed value.

Assays:
[1] = system: Mycobacterium tuberculosis; experiment: Antibacterial activity against Mycobacterium tuberculosis XDR1 measured at 7 to 14 days by broth microdilution method; format: functional
[2] = system: Mycobacterium tuberculosis; experiment: Antibacterial activity against Mycobacterium tuberculosis XDR2 measured at 7 to 14 days by broth microdilution method; format: functional
[3] = system: Mycobacterium tuberculosis; experiment: Antibacterial activity against Mycobacterium tuberculosis MDR1 measured at 7 to 14 days by broth microdilution method; format: functional
[4] = system: Mycobacterium tuberculosis; experiment: Antibacterial activity against Mycobacterium tuberculosis MDR2 measured at 7 to 14 days by broth microdilution method; format: functional
[5] = system: Mycobacterium tuberculosis; experiment: Antibacterial activity against Mycobacterium tuberculosis MDR3 measured at 7 to 14 days by broth microdilution method; format: functional
[6] = system: Mycobacterium tuberculosis; experiment: Antibacterial activity against Mycobacterium tuberculosis MDR4 measured at 7 to 14 days by broth microdilution method; format: functional
[7] = system: Mycobacterium tuberculosis; experiment: Antibacterial activity against Mycobacterium tuberculosis MDR5 measured at 7 to 14 days by broth microdilution method; format: functional
[8] = system: Mycobacterium tuberculosis; experiment: Antibacterial activity against Mycobacterium tuberculosis MDR6 measured at 7 to 14 days by broth microdilution method; format: functional
[9] = system: Mycobacterium tuberculosis; experiment: Antibacterial activity against Mycobacterium tuberculosis MDR7 measured at 7 to 14 days by broth microdilution method; format: functional
[10] = system: Mycobacterium tuberculosis; experiment: Antibacterial activity against Mycobacterium tuberculosis MDR8 measured at 7 to 14 days by broth microdilution method; format: functional
[11] = system: Mycobacterium tuberculosis; experiment: Antibacterial activity against Mycobacterium tuberculosis H37Rv measured at 10 to 14 days by broth microdilution method; format: functional
[12] = target: T1, Biotin--[acetyl-CoA-carboxylase] ligase (Mycobacterium tuberculosis (strain ATCC 25618 / H37Rv), UniProt I6YFP0)
T1 sequence (I6YFP0 whole entry): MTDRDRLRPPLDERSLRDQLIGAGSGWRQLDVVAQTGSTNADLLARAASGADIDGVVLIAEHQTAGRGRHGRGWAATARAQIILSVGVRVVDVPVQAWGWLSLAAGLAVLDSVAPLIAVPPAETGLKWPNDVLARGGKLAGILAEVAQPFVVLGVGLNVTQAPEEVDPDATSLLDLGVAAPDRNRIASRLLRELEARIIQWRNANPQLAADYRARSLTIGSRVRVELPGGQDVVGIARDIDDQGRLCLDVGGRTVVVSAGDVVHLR

[13] = system: Mycobacterium tuberculosis H37Rv; experiment: Drug uptake in Mycobacterium tuberculosis H37Rv at 25 uM after 24 hrs by LC-MS/MS analysis; format: ADME, organism-based

Structure (SMILES)	MIC90 [11] [µM]	Kd [12] [nM]	also measured
Nc1ncnc2c1ncn2[C@@H]1O[C@H](CNS(=O)(=O)NC(=O)CCCC[C@@H]2SC[C@@H]3NC(=O)N[C@@H]32)[C@@H](O)[C@H]1O			MIC99 [1]: 0.16 µM (≈ 0.0915 µg/mL); MIC99 [2]: 0.16 µM (≈ 0.0915 µg/mL); MIC99 [3]: 0.16 µM (≈ 0.0915 µg/mL); MIC99 [4]: 0.16 µM (≈ 0.0915 µg/mL); MIC99 [5]: 0.16 µM (≈ 0.0915 µg/mL); MIC99 [6]: 0.16 µM (≈ 0.0915 µg/mL); MIC99 [7]: 0.16 µM (≈ 0.0915 µg/mL); MIC99 [8]: 0.16 µM (≈ 0.0915 µg/mL); MIC99 [9]: 0.16 µM (≈ 0.0915 µg/mL); MIC99 [10]: 0.16 µM (≈ 0.0915 µg/mL)
Nc1ncnc2c1ncn2[C@@H]1C[C@H](CNS(=O)(=O)NC(=O)CCCC[C@@H]2SC[C@@H]3NC(=O)N[C@@H]32)[C@@H](O)[C@H]1O	> 100	0.753	
[N-]=[N+]=N[C@@H]1[C@H](O)[C@@H](CNS(=O)(=O)NC(=O)CCCC[C@@H]2SC[C@@H]3NC(=O)N[C@@H]32)O[C@H]1n1cnc2c(N)ncnc21	3.12 (≈ 1.86 µg/mL)	0.933	
Nc1ncnc2c1ncn2[C@@H]1O[C@H](CNS(=O)(=O)NC(=O)CCCC[C@@H]2SC[C@@H]3NC(=O)N[C@@H]32)[C@@H](O)[C@H]1N	1.25 (≈ 0.713 µg/mL)	0.627	
CCN(CC)CC.Nc1ncnc2c1ncn2[C@@H]1O[C@H](CNS(=O)(=O)NC(=O)CCCC[C@@H]2SC[C@@H]3NC(=O)N[C@@H]32)[C@@H](O)[C@H]1F	1.25	0.614	Drug uptake [13]: Active
Nc1ncnc2c1ncn2[C@H]1C=C[C@@H](CNS(=O)(=O)NC(=O)CCCC[C@@H]2SC[C@@H]3NC(=O)N[C@@H]32)C1	3.12 (≈ 1.67 µg/mL)	2.14	
CCN(CC)CC.Nc1ncnc2c1ncn2[C@@H]1O[C@H](COS(=O)(=O)NC(=O)CCCC[C@@H]2SC[C@@H]3NC(=O)N[C@@H]32)[C@@H](O)[C@@H]1F	50	0.153	Drug uptake [13]: Active
C[C@@]1(O)[C@H](O)[C@@H](COS(=O)(=O)NC(=O)CCCC[C@@H]2SC[C@@H]3NC(=O)N[C@@H]32)O[C@H]1n1cnc2c(N)ncnc21	50 (≈ 29.3 µg/mL)	0.769	
Nc1ncnc2c1ncn2[C@H]1CNC[C@@H](COS(=O)(=O)NC(=O)CCCC[C@@H]2SC[C@@H]3NC(=O)N[C@@H]32)O1	3.12 (≈ 1.73 µg/mL)	0.324	
Nc1ncnc2c1ncn2[C@@H]1O[C@H](CNS(=O)(=O)NC(=O)CCCC[C@@H]2SC[C@@H]3NC(=O)N[C@@H]32)C[C@H]1O	0.78 (≈ 0.433 µg/mL)	0.592	
Nc1ncnc2c1ncn2[C@H]1CC[C@@H](CNS(=O)(=O)NC(=O)CCCC[C@@H]2SC[C@@H]3NC(=O)N[C@@H]32)C1	1.56 (≈ 0.839 µg/mL)	0.54	
